Assay results reported in article PMC8688747 (Drug Design, Development and Therapy, 2021).
Read-outs that look alike come from different tables or passages of the source.

Key:
[1] = biological target: T1, Mcl-1 (myeloid cell leukemia-1) (Homo sapiens, UniProt Q07820); experiment: 1H-15N HSQC NMR titration; assay type: binding
[2] = biological target: T1, Mcl-1 (myeloid cell leukemia-1); experiment: 1H-15N HSQC NMR titration; assay type: binding; remark: listed apart in the source

T1 sequence (Q07820 172-327): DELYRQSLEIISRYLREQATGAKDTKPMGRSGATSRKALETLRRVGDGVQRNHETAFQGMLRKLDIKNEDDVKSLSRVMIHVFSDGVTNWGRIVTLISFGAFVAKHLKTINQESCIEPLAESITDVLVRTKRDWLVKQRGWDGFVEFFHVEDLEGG

| Kd [1] [µM] | Kd [2] [mM] | Structure (SMILES) |
| --- | --- | --- |
| ~300 | – | O=C(O)c1ccc(-n2nc(-c3ccccc3O)nc2-c2ccccc2O)cc1 [Deferasirox] |
| – | ~1 | Cc1cccc(Nc2ccncc2S(=O)(=O)NC(=O)NC(C)C)c1 [Torsemide] |
